From US8501770B2 (ArQule, Inc., priority 2009, dated 2013)

Target: Full-length inactive AKT1 (Homo sapiens, UniProt P31749)
Test: Inactive Akt Alpha Screen Assay
Assay type: biochemical
Conditions: values not marked with "*"; read-out: Akt1 IC50, (AlphaScreen)
How it was run: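 AlphaScreen read-out (excitation 640 nm, emission 570 nm) after 90 min incubation at room temperature in the dark. Signal comes from crosstide phosphorylation by AKT1, which was activated by added PDK1, MAPKAPK2, ATP and lipid vesicles, captured via phospho-AKT substrate antibody and streptavidin beads.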

Chain of Full-length inactive AKT1 (P31749 whole entry): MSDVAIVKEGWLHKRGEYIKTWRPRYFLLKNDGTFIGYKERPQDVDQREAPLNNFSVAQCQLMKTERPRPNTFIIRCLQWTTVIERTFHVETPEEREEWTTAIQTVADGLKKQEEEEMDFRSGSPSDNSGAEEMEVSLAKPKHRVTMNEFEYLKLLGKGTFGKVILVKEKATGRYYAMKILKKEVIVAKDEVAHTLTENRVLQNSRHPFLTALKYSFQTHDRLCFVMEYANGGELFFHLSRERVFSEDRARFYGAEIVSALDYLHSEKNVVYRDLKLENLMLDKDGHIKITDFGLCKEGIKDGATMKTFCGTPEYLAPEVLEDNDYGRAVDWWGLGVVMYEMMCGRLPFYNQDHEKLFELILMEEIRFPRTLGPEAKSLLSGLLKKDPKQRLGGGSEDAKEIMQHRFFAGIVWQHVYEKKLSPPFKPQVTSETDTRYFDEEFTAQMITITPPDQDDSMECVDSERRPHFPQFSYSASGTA

Row | IC50 | SMILES
1 | 470 nM | Cc1cnc2c(c1)nc(-c1cccnc1N)n2-c1ccc(CNC(=O)OC(C)(C)C)cc1 [Example 227, tert-butyl 4-(2-(2-aminopyridin-3-yl)-6-methyl-3H-imidazo[4,5-b]pyridin-3-yl)benzylcarbamate]
2 | 240 nM | Cc1cnc2c(c1)nc(-c1cccnc1N)n2-c1ccc(CNC(=O)c2ccc(F)cc2)cc1 [Example 228, N-(4-(2-(2-aminopyridin-3-yl)-6-methyl-3H-imidazo[4,5-b]pyridin-3-yl)benzyl)-4-fluorobenzamide]
3 | 25 nM | CC(=O)Nc1cccc(C(=O)NCc2ccc(-n3c(-c4cccnc4N)nc4cc(C)cnc43)cc2)c1 [Example 229, 3-acetamido-N-(4-(2-(2-aminopyridin-3-yl)-6-methyl-3H-imidazo[4,5-b]pyridin-3-yl)benzyl)benzamide]
4 | 190 nM | Cc1cnc2c(c1)nc(-c1cccnc1N)n2-c1ccc(CNC(=O)c2ccc(C(C)C)cc2)cc1 [Example 230, N-(4-(2-(2-aminopyridin-3-yl)-6-methyl-3H-imidazo[4,5-b]pyridin-3-yl)benzyl)-4-isopropylbenzamide]
5 | 20 nM | Cc1cnc2c(c1)nc(-c1cccnc1N)n2-c1ccc(CNC(=O)c2ccc3nc(C)ccc3c2)cc1 [Example 231, N-(4-(2-(2-aminopyridin-3-yl)-6-methyl-3H-imidazo[4,5-b]pyridin-3-yl)benzyl)-2-methylquinoline-6-carboxamide]
6 | 41 nM | Cc1cnc2c(c1)nc(-c1cccnc1N)n2-c1ccc(CNC(=O)c2cccc(F)c2)cc1 [Example 232, N-(4-(2-(2-aminopyridin-3-yl)-6-methyl-3H-imidazo[4,5-b]pyridin-3-yl)benzyl)-3-fluorobenzamide]
7 | 53 nM | Nc1ncccc1-c1nc2cc(F)cnc2n1-c1ccc(CC(=O)Nc2ccccc2)cc1 [Example 234, 2-(4-(2-(2-aminopyridin-3-yl)-6-fluoro-3H-imidazo[4,5-b]pyridin-3-yl)phenyl)-N-phenylacetamide]
8 | 330 nM | CCOC(=O)Cc1ccc(-n2c(-c3cccnc3N)nc3ccc(Cl)nc32)cc1 [Example 241, ethyl 2-(4-(2-(2-aminopyridin-3-yl)-5-chloro-3H-imidazo[4,5-b]pyridin-3-yl)phenyl)acetate]
9 | 20 nM | Cc1ccc2nc(-c3cccnc3N)n(-c3ccc(CNC(=O)c4ccccc4)cc3)c2n1 [Example 246, N-(4-(2-(2-aminopyridin-3-yl)-5-methyl-3H-imidazo[4,5-b]pyridin-3-yl)benzyl)benzamide]
10 | 16 nM | Cc1ccc2nc(-c3cccnc3N)n(-c3ccc(CNC(=O)c4cccc(F)c4)cc3)c2n1 [Example 247, N-(4-(2-(2-aminopyridin-3-yl)-5-methyl-3H-imidazo[4,5-b]pyridin-3-yl)benzyl)-3-fluorobenzamide]
11 | 200 nM | CC(C)(C)OC(=O)NCc1ccc(-n2c(-c3cccnc3N)nc3cc(-c4cccnc4)cnc32)cc1 [Example 250, tert-butyl 4-(2-(2-aminopyridin-3-yl)-6-(pyridin-3-yl)-3H-imidazo[4,5-b]pyridin-3-yl)benzylcarbamate]

Continued, compound first:

Row | SMILES | IC50
12 | Nc1ncccc1-c1nc2ccc(-c3ccc(CO)cc3)nc2n1-c1ccc(CNC(=O)c2ccccc2)cc1 [Example 226, N-(4-(2-(2-aminopyridin-3-yl)-5-(4-(hydroxymethyl)phenyl)-3H-imidazo[4,5-b]pyridin-3-yl)benzyl)benzamide] | 18 nM
13 | CC(C)c1ccc(C(=O)NCc2ccc(-n3c(-c4cccnc4N)nc4cc(-c5cccnc5)cnc43)cc2)cc1 [Example 233, N-(4-(2-(2-aminopyridin-3-yl)-6-(pyridin-3-yl)-3H-imidazo[4,5-b]pyridin-3-yl)benzyl)-4-isopropylbenzamide] | 140 nM
14 | Nc1ncccc1-c1nc2ccc(-c3ccncc3)nc2n1-c1ccc(CNC(=O)c2ccccc2)cc1 [Example 235, N-(4-(2-(2-aminopyridin-3-yl)-5-(pyridin-4-yl)-3H-imidazo[4,5-b]pyridin-3-yl)benzyl)benzamide] | 130 nM
15 | CC(=O)Nc1ccc(-c2ccc3nc(-c4cccnc4N)n(-c4ccc(CNC(=O)c5ccccc5)cc4)c3n2)cc1 [Example 236, N-(4-(5-(4-acetamidophenyl)-2-(2-aminopyridin-3-yl)-3H-imidazo[4,5-b]pyridin-3-yl)benzyl)benzamide] | 33 nM
16 | Nc1ncccc1-c1nc2cc(-c3cc[nH]c3)cnc2n1-c1ccc(CNC(=O)c2ccccc2)cc1 [Example 237, N-(4-(2-(2-aminopyridin-3-yl)-6-(1H-pyrrol-3-yl)-3H-imidazo[4,5-b]pyridin-3-yl)benzyl)benzamide] | 32 nM
17 | CC(=O)Nc1ccc(C(=O)NCc2ccc(-n3c(-c4cccnc4N)nc4cc(-c5cccnc5)cnc43)cc2)cc1 [Example 238, 4-acetamido-N-(4-(2-(2-aminopyridin-3-yl)-6-(pyridin-3-yl)-3H-imidazo[4,5-b]pyridin-3-yl)benzyl)benzamide] | 42 nM
18 | Nc1ncccc1-c1nc2cc(-c3cccnc3)cnc2n1-c1ccc(CNC(=O)c2cccc(F)c2)cc1 [Example 239, N-(4-(2-(2-aminopyridin-3-yl)-6-(pyridin-3-yl)-3H-imidazo[4,5-b]pyridin-3-yl)benzyl)-3-fluorobenzamide] | 21 nM
19 | Nc1ncccc1-c1nc2cc(-c3ccc(C(=O)O)o3)cnc2n1-c1ccc(CNC(=O)c2ccccc2)cc1 [Example 240, 5-(2-(2-aminopyridin-3-yl)-3-(4-(benzamidomethyl)phenyl)-3H-imidazo[4,5-b]pyridin-6-yl)furan-2-carboxylic acid] | 16 nM
20 | CCOC(=O)Cc1ccc(-n2c(-c3cccnc3N)nc3ccc(-c4cccnc4)nc32)cc1 [Example 242, ethyl 2-(4-(2-(2-aminopyridin-3-yl)-5-(pyridin-3-yl)-3H-imidazo[4,5-b]pyridin-3-yl)phenyl)acetate] | 64 nM
21 | CCOC(=O)Cc1ccc(-n2c(-c3cccnc3N)nc3ccc(-c4cccc(NC(C)=O)c4)nc32)cc1 [Example 243, ethyl 2-(4-(5-(3-acetamidophenyl)-2-(2-aminopyridin-3-yl)-3H-imidazo[4,5-b]pyridin-3-yl)phenyl)acetate] | 320 nM
22 | Cc1ccc2cc(C(=O)NCc3ccc(-n4c(-c5cccnc5N)nc5cc(-c6cccnc6)cnc54)cc3)ccc2n1 [Example 244, N-(4-(2-(2-aminopyridin-3-yl)-6-(pyridin-3-yl)-3H-imidazo[4,5-b]pyridin-3-yl)benzyl)-2-methylquinoline-6-carboxamide] | 22 nM
23 | Cc1ccc2nc(-c3cccnc3N)n(-c3ccc(CNC(=O)c4ccc(C(C)C)cc4)cc3)c2n1 [Example 245, N-(4-(2-(2-aminopyridin-3-yl)-5-methyl-3H-imidazo[4,5-b]pyridin-3-yl)benzyl)-4-isopropylbenzamide] | 14 nM
24 | CC(=O)Nc1cccc(C(=O)NCc2ccc(-n3c(-c4cccnc4N)nc4ccc(C)nc43)cc2)c1 [Example 248, 3-acetamido-N-(4-(2-(2-aminopyridin-3-yl)-5-methyl-3H-imidazo[4,5-b]pyridin-3-yl)benzyl)benzamide] | 28 nM
25 | CC(=O)Nc1ccc(C(=O)NCc2ccc(-n3c(-c4cccnc4N)nc4ccc(C)nc43)cc2)cc1 [Example 249, 4-acetamido-N-(4-(2-(2-aminopyridin-3-yl)-5-methyl-3H-imidazo[4,5-b]pyridin-3-yl)benzyl)benzamide] | 25 nM
